The values below come from patent US20250255301A1, “PESTICIDAL MIXTURES COMPRISING A PYRAZOLE COMPOUND” (BASF SE, priority 2019, published 2025).

Common to all, as to format: cell-based
The subject of one assay is Botrytis cinerea. Put plainly: Activity against the grey mold Botrytis cinerea in the microtiterplate test. Conditions: single active, 7 days after inoculation. The text has this: Synergism can be described as an interaction where the combined effect of two or more compounds is greater than the sum of the individual effects of each of the compounds. The presence of a synergistic effect in terms of percent control or efficacy, between two mixing partners (X and Y) can be calculated using the Colby equation (Colby, S. R., 1967, Calculating Synergistic and Antagonistic Responses in Herbicide Combinations, Weeds, 15, 20-22): The measured parameters were compared to the growth of the active compound-free control variant (100%) and the fungus-free blank value to determine the relative growth in % of the pathogens in the respective active compounds. These percentages were converted into efficacies. […] The expected efficacies of active compound mixtures were determined using Colby's formula [R. S. Colby, “Calculating synergistic and antagonistic responses of herbicide combinations”, Weeds 15, 20-22 (1967)] and compared with the observed efficacies. […] The stock solutions were mixed according to the ratio, pipetted onto a micro titer plate (MTP) and diluted with water to the stated concentrations. A spore suspension of Botrci cinerea in an aqueous biomalt or yeast-bactopeptone-sodiumacetate solution was then added. The plates were placed in a water vapor-saturated chamber at a temperature of 18° C.

A further assay concerns Sclerotinia sclerotiorum. As to the kind of experiment: Activity against Sclerotinia sclerotiorum in the microtiterplate test. Conditions: single active, 7 days after inoculation.
For a further assay, the system named is Rhynchosporium secalis. As to the kind of experiment: Activity against Rhynchosporium secalis in the microtiterplate test. Conditions: single active, 63 ppm, 7 days after inoculation. The text has this: Synergism can be described as an interaction where the combined effect of two or more compounds is greater than the sum of the individual effects of each of the compounds. The presence of a synergistic effect in terms of percent control or efficacy, between two mixing partners (X and Y) can be calculated using the Colby equation (Colby, S. R., 1967, Calculating Synergistic and Antagonistic Responses in Herbicide Combinations, Weeds, 15, 20-22): The measured parameters were compared to the growth of the active compound-free control variant (100%) and the fungus-free blank value to determine the relative growth in % of the pathogens in the respective active compounds. These percentages were converted into efficacies. […] The expected efficacies of active compound mixtures were determined using Colby's formula [R. S. Colby, “Calculating synergistic and antagonistic responses of herbicide combinations”, Weeds 15, 20-22 (1967)] and compared with the observed efficacies. […] The stock solutions were mixed according to the ratio, pipetted onto a micro titer plate (MTP) and diluted with water to the stated concentrations. A spore suspension of Rhynchosporium secalis in an aqueous biomalt or yeast-bactopeptone-glycerine or DOB solution was then added. […] Using an absorption photometer, the MTPs were measured at 405 nm 7 days after the inoculation.

Assay [1] has as its system Colletotrichum orbiculare. Put plainly: Activity against Colletotrichum orbiculare in the microtiterplate test. Conditions: single active, 7 days after inoculation.
In a further assay the test system is Septoria tritici. As to the kind of experiment: Activity against leaf blotch on wheat caused by Septoria tritici (microtiter plate). The settings on record: single active, 7 days after inoculation. The text has this:
Synergism can be described as an interaction where the combined effect of two or more compounds is greater than the sum of the individual effects of each of the compounds. The presence of a synergistic effect in terms of percent control or efficacy, between two mixing partners (X and Y) can be calculated using the Colby equation (Colby, S. R., 1967, Calculating Synergistic and Antagonistic Responses in Herbicide Combinations, Weeds, 15, 20-22): The measured parameters were compared to the growth of the active compound-free control variant (100%) and the fungus-free blank value to determine the relative growth in % of the pathogens in the respective active compounds. These percentages were converted into efficacies. […] The expected efficacies of active compound mixtures were determined using Colby's formula [R. S. Colby, “Calculating synergistic and antagonistic responses of herbicide combinations”, Weeds 15, 20-22 (1967)] and compared with the observed efficacies. […] The stock solutions were mixed according to the ratio, pipetted onto a micro titer plate (MTP) and diluted with water to the stated concentrations. A spore suspension of Septoria tritici in an aqueous biomalt or yeast-bactopeptone-glycerine or DOB solution was then added. The plates were placed in a water vapor-saturated chamber at a temperature of 18° C. Using an absorption photometer, the MTPs were measured at 405 nm 7 days after the inoculation.

For the next assay, the system named is Cercospora sojina. Put plainly: Activity against Cercospora sojina in the microtiter test. The settings on record: single active, 7 days after inoculation. The text has this:
Synergism can be described as an interaction where the combined effect of two or more compounds is greater than the sum of the individual effects of each of the compounds. The presence of a synergistic effect in terms of percent control or efficacy, between two mixing partners (X and Y) can be calculated using the Colby equation (Colby, S. R., 1967, Calculating Synergistic and Antagonistic Responses in Herbicide Combinations, Weeds, 15, 20-22): The measured parameters were compared to the growth of the active compound-free control variant (100%) and the fungus-free blank value to determine the relative growth in % of the pathogens in the respective active compounds. These percentages were converted into efficacies. […] The expected efficacies of active compound mixtures were determined using Colby's formula [R. S. Colby, “Calculating synergistic and antagonistic responses of herbicide combinations”, Weeds 15, 20-22 (1967)] and compared with the observed efficacies. […] The stock solutions were mixed according to the ratio, pipetted onto a micro titer plate (MTP) and diluted with water to the stated concentrations. A spore suspension of Cercospora sojina in an aqueous biomalt or yeast-bactopeptone-sodiumacetate solution was then added. The plates were placed in a water vapor-saturated chamber at a temperature of 18° C. Using an absorption photometer, the MTPs were measured at 405 nm 7 days after the inoculation.

The next assay has as its system Phytophthora infestans. The settings on record: single active, 7 days after inoculation.

Where two headings read alike, the source gives them in different places.

Consider pyrapropoyne [reference compound], for which the Observed efficacy is 26% with Botrytis cinerea (1 ppm) and 27% with Sclerotinia sclerotiorum (1 ppm).
For `N#Cc1ccc(Oc2ccc(C(F)(F)C(O)(Cn3ncnc3S)c3ccc(F)cc3F)nc2)cc1` (centres unmarked) [B.5)d), 4-[[6-[2-(2,4-difluorophenyl)-1,1-difluoro-2-hydroxy-3-(5-sulfanyl-1,2,4-triazol-1-yl)propyl]-3-pyridyl]oxy]benzonitrile], in the assay on Rhynchosporium secalis, the Observed efficacy is 70%.
For the compound `CON(C(=O)c1cn(C)nc1C(F)F)C(C)Cc1c(Cl)cc(Cl)cc1Cl` (centres unmarked) [Pydiflumetofen, pydiflumetofen, reference compound], the Observed efficacy in the assay with Botrytis cinerea (0.063 ppm) is on record as 42%; in assay [1] (16 ppm), 59%.
`CCN(C(=O)c1cnn(C(C)C(C)C)c1C)c1ccnnc1` (racemic) [Dimpropyridaz, 1-[(1 RS)-1,2-dimethylpropyl]-N-ethyl-5-methyl-N-pyridazin-4-yl-1H-pyrazole-4-carboxamide]: the Observed efficacy in the assay on Septoria tritici (0.063 ppm) stood at 5%; in the assay with Septoria tritici (0.25 ppm) it was 7%; in the assay on Cercospora sojina (0.25 ppm) it was 0%; in the assay on Cercospora sojina (63 ppm) it was 23%; in the assay on Botrytis cinerea (0.063 ppm), 0%; in the assay on Botrytis cinerea (0.25 ppm) it was 1%. The Observed efficacy came out at 0% with Botrytis cinerea (1 ppm); 0% in the assay with Sclerotinia sclerotiorum (0.25 ppm); 12% in the assay with Rhynchosporium secalis; 0% in the assay with Phytophthora infestans (0.016 ppm); 4% in the assay on Phytophthora infestans (0.063 ppm); 14% in assay [1] (63 ppm).
`Cc1cc(C(F)(F)F)nn1CC(=O)N1CCC(c2nc(C3=NOC(c4c(F)cccc4F)C3)cs2)CC1` (centres unmarked) [Oxathiapiproline, oxathiapiprolin, reference compound]: the values for the Observed efficacy with Phytophthora infestans (0.016 ppm) and with Phytophthora infestans (0.063 ppm) were 0% and 11%, respectively.
As to `COc1ccnc(C(=O)N[C@@H](C)C(=O)O[C@@H](C)C(c2ccc(F)cc2)c2ccc(F)cc2)c1OC(C)=O` [Florylpicoxamid, florylpicoxamid, reference compound], the values for the Observed efficacy in the assay with Cercospora sojina (0.25 ppm) and with Cercospora sojina (16 ppm) were 6% and 61%, respectively.
On to `CC(C)c1ccc(Cl)cc1CN(C(=O)c1c(C(F)F)nn(C)c1F)C1CC1` [Isoflucypram, isoflucypram, reference compound], for which the Observed efficacy with Septoria tritici (0.063 ppm) came to 40%; in the assay on Botrytis cinerea (0.25 ppm) it was 57%.
